In patent US20250042922A1, “KRAS MODULATING COMPOUNDS” (priority 2023, published 2025):

Columns and labels:
[1] = tested on: cellular pERK in Kuramochi (WT KRAS) cells; assay: Cell based pERK assay, Kuramochi; conditions: Kuramochi (WT KRAS), 2 hours incubation, HTRF phospho-ERK1/2; read-out: Kuramochi pERK EC50
Method: (§1) Compounds were tested in a 384-well assay format for their ability to inhibit cellular pERK in Kuramochi (WT KRAS), MIA-PaCa-2 (KRAS-G12C), ASPC-1 (KRAS G12D), and NCI-H441 (KRAS-G12V) cell-lines. Compounds were serially diluted (1:3) in DMSO. On day −1, 80 μL of cells were plated per well in the 384 well tissue-culture plates (Greiner: Cat #781080) to seed 5000 cells per wells of AsPC-1 or 7500 cells of MIA-PaCa-2, NCI-H441, and Kuramochi cell lines in RPMI (Corning: Cat #10-040-CM) with 10% fetal bovine serum (FBS) (HyClone: Cat #SH30071-03) and 1× penicillin-streptomycin-glutamate (PSG) (Corning: Cat #30-009-CI) for […] and Kuramochi cell lines and DMEM (Corning: Cat #15-018-CM) with 10% FBS and 1×PSG for MIA-PaCa-2 cell line. The plates were then incubated overnight at 37° C. and 5% CO2. On day 0, 400 nL of compound/well was added into the cell plates and mixed 5 times by pipetting using a Beckmann Biomek FX. The cell plates were then incubated for 2 hours at 37° C. and 5% CO2. HTRF Advanced Phospho-ERK1/2 (THR202/TYR204) Detection Kits (PerkinElmer: Cat #64AERPEG) were used to prepare the lysis and detection solution according to manufacturer protocol. Following the 2 hour incubation, 70 μL of medium was aspirated from the plates and 10 uL of lysis and detection solution was added to the plates using a Biotek EL406 washer and dispenser. Plates were sealed and stored overnight at room temperature. HTRF ratio (665 nm/615 nm) was read by Envision multimode reader (PerkinElmer) the next day. The TR-FRET ratios were normalized to a positive (saturating concentration of known inhibitor) and negative (DMSO) control and plotted against the log of compound concentration.

[2] = tested on: cellular pERK in ASPC-1 (KRAS G12D) cells; assay: Cell based pERK assay, ASPC-1; conditions: Homo sapiens, ASPC1; ASPC-1 (KRAS G12D), 2 hours incubation, HTRF phospho-ERK1/2; read-out: AsPC1 pERK EC50
Method: as §1

[3] = biological target: GDP-loaded wild-type KRAS (WT) (Homo sapiens, UniProt P01116); assay: KRAS (GDP) biochemical TR-FRET probe displacement assay, WT; type: binding; conditions: 2 hours
Method: (§2) Compounds are tested for binding to GDP-loaded wild-type KRAS (WT), KRAS-G12C, KRAS-G12D, and KRAS-G12V in a 384-well assay format using a TR-FRET probe displacement assay in buffer consisting of 50 mM Hepes (pH 7.4), 150 mM NaCl, 5 mM MgCl2 and 0.005% Tween-20. […] Compounds are serially diluted (1:3) in DMSO. The LabCyte ECHO Acoustic dispenser was used to pre-spot the assay plates (384-well Non-Binding Surface plates, Corning, Catalog #3824) with 50 nL of compound. 5 μL of 2X enzyme concentration is added to the pre-spotted plates and incubated for 30 minutes before adding 5 μL of 2X concentration of Eu-streptavidin and Cy-5 labelled probe (10 μL final reaction volume). The plates are incubated at room temperature for 2 hours before measuring TR-FRET ratio (665 nm/615 nm) on the Envision multimode plate reader. The ratios are normalized to a positive (saturating concentration of known inhibitor) and negative (DMSO) control and plotted against the log of compound concentration.

[4] = tested on: cellular pERK in MIA-PaCa-2 (KRAS-G12C) cells; assay: Cell based pERK assay, MIA-PaCa-2; conditions: Homo sapiens; MIA-PaCa-2 (KRAS-G12C), 2 hours incubation, HTRF phospho-ERK1/2; read-out: MIAPaCa2 pERK EC50
Method: as §1

[5] = biological target: GDP-loaded KRAS-G12V (Homo sapiens, UniProt P01116, G12V); assay: KRAS (GDP) biochemical TR-FRET probe displacement assay, G12V; type: binding; conditions: 2 hours
Method: as §2

[6] = biological target: GDP-loaded KRAS-G12C (Homo sapiens, UniProt P01116, G12C); assay: KRAS (GDP) biochemical TR-FRET probe displacement assay, G12C; type: binding; conditions: 2 hours
Method: as §2

[7] = biological target: GDP-loaded KRAS-G12D (Homo sapiens, UniProt P01116, G12D); assay: KRAS (GDP) biochemical TR-FRET probe displacement assay, G12D; type: binding; conditions: 2 hours
Method: as §2

[8] = tested on: cellular pERK in NCI-H441 (KRAS-G12V) cells; assay: Cell based pERK assay, NCI-H441; conditions: Homo sapiens; NCI-H441 (KRAS-G12V), 2 hours incubation, HTRF phospho-ERK1/2; read-out: H441 PERK EC50
Method: as §1

Sequence of GDP-loaded KRAS-G12V (P01116 1-188 isoform P01116-2 G12V): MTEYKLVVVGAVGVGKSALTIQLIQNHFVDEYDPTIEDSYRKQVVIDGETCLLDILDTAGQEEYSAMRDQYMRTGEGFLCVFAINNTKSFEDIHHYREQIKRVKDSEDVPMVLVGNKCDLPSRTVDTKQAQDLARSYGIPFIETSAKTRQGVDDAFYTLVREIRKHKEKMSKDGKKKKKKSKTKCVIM
Sequence of GDP-loaded KRAS-G12C (P01116 1-188 isoform P01116-2 G12C): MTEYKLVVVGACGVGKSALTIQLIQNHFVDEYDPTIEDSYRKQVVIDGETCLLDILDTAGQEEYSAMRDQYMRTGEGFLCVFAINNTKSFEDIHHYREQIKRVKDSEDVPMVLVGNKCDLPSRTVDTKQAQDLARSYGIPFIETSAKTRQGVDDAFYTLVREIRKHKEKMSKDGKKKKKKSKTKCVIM
Sequence of GDP-loaded KRAS-G12D (P01116 1-188 isoform P01116-2 G12D): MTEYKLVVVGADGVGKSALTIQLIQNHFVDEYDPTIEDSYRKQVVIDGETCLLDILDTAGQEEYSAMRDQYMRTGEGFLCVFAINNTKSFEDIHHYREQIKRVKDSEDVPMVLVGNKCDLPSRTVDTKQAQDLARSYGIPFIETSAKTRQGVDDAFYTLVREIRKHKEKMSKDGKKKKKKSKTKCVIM
Sequence of GDP-loaded wild-type KRAS (WT) (P01116 1-188 isoform P01116-2): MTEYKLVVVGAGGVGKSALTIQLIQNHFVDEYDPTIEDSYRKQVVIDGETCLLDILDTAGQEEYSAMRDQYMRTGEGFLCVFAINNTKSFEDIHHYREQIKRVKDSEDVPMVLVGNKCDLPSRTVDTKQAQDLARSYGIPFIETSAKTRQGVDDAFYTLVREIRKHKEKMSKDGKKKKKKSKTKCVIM

Row | SMILES | EC50 [1] | EC50 [2] | IC50 [3] | EC50 [4] | IC50 [5] | IC50 [6] | IC50 [7] | EC50 [8]
1 | N#Cc1c(N)sc2c(F)ccc(-c3nc4c5c(nc(OCC67CCCN6CCC7)nc5c3F)N3C[C@@]5(F)CC[C@](F)(N5)[C@H]3CCC4)c12 [Example 4-7, 2-amino-7-fluoro-4-((6aR,7R,10S)-1,7,10-trifluoro-13-((tetrahydro-1H-pyrrolizin-7a(5H)-yl)methoxy)-5,6,6a,7,8,9,10,11-octahydro-4H-3,11a,12,14,15-pentaaza-7,10-methanocyclohepta[4,5]cycloocta[1,2,3-de]naphthalen-2-yl)benzo[b]thiophene-3-carbonitrile] | 15.6 nM | 840 nM | 10.1 nM | 59.8 nM | 44.1 nM | 28.5 nM | 86.8 nM | 
2 | C[C@H]1Cc2nc(-c3cc(N)cc4ccc(F)c(F)c34)c(F)c3nc(OCC45CCCN4CCC5)nc(c23)N2C[C@@]3(F)CC[C@](F)(N3)[C@H]12 [Example 5-1, 5,6-difluoro-4-((5S,5aS,6R,9S)-1,6,9-trifluoro-5-methyl-12-((tetrahydro-1H-pyrrolizin-7a(5H)-yl)methoxy)-4,5,5a,6,7,8,9,10-octahydro-3,10a,11,13,14-pentaaza-6,9-methanonaphtho[1,8-ab]heptalen-2-yl)naphthalen-2-amine] | 2.2 nM | 62.5 nM | 0.271 nM | 2.34 nM | 7.42 nM | 1.71 nM | 16 nM | 
3 | CCC1CCCc2cc(N)cc(-c3nc4c5c(nc(OCC67CCCN6CCC7)nc5c3F)N3C[C@@]5(F)CC[C@](F)(N5)[C@H]3CCC4)c21 (stereo partly drawn) [Example 4-24, 5-ethyl-4-((6aR,7R,10S)-1,7,10-trifluoro-13-((tetrahydro-1H-pyrrolizin-7a(5H)-yl)methoxy)-5,6,6a,7,8,9,10,11-octahydro-4H-3,11a,12,14,15-pentaaza-7,10-methanocyclohepta[4,5]cycloocta[1,2,3-de]naphthalen-2-yl)-5,6,7,8-tetrahydronaphthalen-2-amine] | 312 nM | > 1000 nM | > 100 nM | 560 nM | > 100 nM | > 100 nM | > 100 nM | 
4 | C[C@H]1Cc2nc(-c3cc(N)cc(Cl)c3C(F)(F)F)c(F)c3nc(OCC45CCCN4CCC5)nc(c23)N2C[C@@]3(F)CC[C@](F)(N3)[C@H]12 [Example 4-17, 3-chloro-5-((8S,8aS,9R,12S)-4,9,12-trifluoro-8-methyl-2-((tetrahydro-1H-pyrrolizin-7a(5H)-yl)methoxy)-7,8,8a,9,10,11,12,13-octahydro-1,3,6,13a,14-pentaaza-9,12-methanonaphtho[1,8-ab]heptalen-5-yl)-4-(trifluoromethyl)aniline] | 4.32 nM | 38 nM | 0.161 nM | 1.72 nM | 0.865 nM | 0.479 nM | 2.79 nM | 
5 | C#Cc1c(F)ccc2cccc(-c3nc4c5c(nc(OCC67CCCN6CCC7)nc5c3F)N3C[C@@]5(F)CC[C@](F)(N5)[C@H]3CCC4)c12 [Example 4-29, (6aR,7R,10S)-2-(8-ethynyl-7-fluoronaphthalen-1-yl)-1,7,10-trifluoro-13-((tetrahydro-1H-pyrrolizin-7a(5H)-yl)methoxy)-5,6,6a,7,8,9,10,11-octahydro-4H-3,11a,12,14,15-pentaaza-7,10-methanocyclohepta[4,5]cycloocta[1,2,3-de]naphthalene] | 6.37 nM | 305 nM | 5.99 nM | 12.8 nM | 24.8 nM | 8.68 nM | 38.1 nM | 
6 | C#Cc1c(F)ccc2cc(N)cc(-c3nc4c5c(nc(OC[C@]6(C)CN(C)CC/C6=C\F)nc5c3F)N3C[C@@]5(F)CC[C@](F)(N5)[C@@H]3[C@@H](C)C4)c12 [Example 4-39, 5-ethynyl-6-fluoro-4-((5S,5aS,6R,9S)-1,6,9-trifluoro-12-(((S,E)-4-(fluoromethylene)-1,3-dimethylpiperidin-3-yl)methoxy)-5-methyl-4,5,5a,6,7,8,9,10-octahydro-3,10a,11,13,14-pentaaza-6,9methanonaphtho[1,8-ab]heptalen-2-yl)naphthalen-2-amine] | 3.76 nM | 6.04 nM |  | 0.253 nM | 0.583 nM | 0.383 nM | 1.12 nM | 0.689 nM
7 | C#Cc1c(F)ccc2cc(N)cc(-c3nc4c5c(nc(OC[C@@H]6CCCN6C)nc5c3F)N3C[C@@]5(F)CC[C@](F)(N5)[C@H]3CCC4)c12 [Example 4-8, 5-ethynyl-6-fluoro-4-((6aR,7R,10S)-1,7,10-trifluoro-13-(((S)-1-methylpyrrolidin-2-yl)methoxy)-5,6,6a,7,8,9,10,11-octahydro-4H-3,11a,12,14,15-pentaaza-7,10-methanocyclohepta[4,5]cycloocta[1,2,3-de]naphthalen-2-yl)naphthalen-2-amine] | 5.11 nM | 169 nM | 6.19 nM | 6.73 nM | 34.7 nM | 13.2 nM | 57.8 nM | 
8 | C#Cc1c(F)ccc2cc(O)cc(-c3nc4c5c(nc(OC[C@@]67CCCN6C[C@H](F)C7)nc5c3F)N3C[C@@]5(F)CC[C@](F)(N5)[C@@H]3CC4)c12 [Example 4-20, 5-ethynyl-6-fluoro-4-((5aS,6R,9S)-1,6,9-trifluoro-12-(((2R,7aS)-2-fluorotetrahydro-1H-pyrrolizin-7a(5H)-yl)methoxy)-4,5,5a,6,7,8,9,10-octahydro-3,10a,11,13,14-pentaaza-6,9-methanonaphtho[1,8-ab]heptalen-2-yl)naphthalen-2-ol] | 1.8 nM | 0.735 nM |  | 0.081 nM |  |  |  | 0.616 nM
9 | C#Cc1c(F)ccc2cc(O)cc(-c3nc4c5c(nc(OC[C@@]67CCCN6C[C@H](F)C7)nc5c3F)N3C[C@@]5(F)CC[C@H](N5)[C@H]3CC4)c12 [Example 1-1, 4-((5aR,6S,9S)-1,9-difluoro-12-(((2R,7aS)-2-fluorotetrahydro-1H-pyrrolizin-7a(5H)-yl)methoxy)-4,5,5a,6,7,8,9,10-octahydro-3,10a,11,13,14-pentaaza-6,9-methanonaphtho[1,8-ab]heptalen-2-yl)-5-ethynyl-6-fluoronaphthalen-2-ol] | 2.68 nM | 38.2 nM |  | 3.27 nM |  |  |  | 4.93 nM
10 | C#Cc1c(F)ccc2cc(O)cc(-c3nc4c5c(nc(OCC67CCCN6CCC7)nc5c3F)N3C[C@@]5(F)CC[C@](F)(N5)[C@@H]3[C@@H](C)C4)c12 [Example 4-10, 5-ethynyl-6-fluoro-4-((5S,5aS,6R,9S)-1,6,9-trifluoro-5-methyl-12-((tetrahydro-1H-pyrrolizin-7a(5H)-yl)methoxy)-4,5,5a,6,7,8,9,10-octahydro-3,10a,11,13,14-pentaaza-6,9-methanonaphtho[1,8-ab]heptalen-2-yl)naphthalen-2-ol] | 11.6 nM | 5.93 nM |  | 0.243 nM |  |  |  | 3.2 nM
